{
  "source": "patent EP0965268B1",
  "about": "“Thermostabilization, osmoprotection, and protection against desiccation of enzymes, cell components and cells by di-glycerol-phosphate” (bitop Aktiengesellschaft für biotechnische Optimierung, priority 1998, dated 1999)",
  "key": {"[1]": {"molecular_target": "T1, Desulfovibrio gigas rubredoxin (Megalodesulfovibrio gigas, UniProt P00270)", "T1 construct": "Rubredoxin was obtained and purified as described by LeGall and Dragoni [15] from Desulfovibrio gigas; made in house; host or cells: Desulfovibrio gigas (natural source, not recombinant)", "T1 sequence (P00270 whole entry)": "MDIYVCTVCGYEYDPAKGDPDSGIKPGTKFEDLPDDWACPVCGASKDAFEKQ", "assay": "Thermal denaturation of rubredoxin, decrease in absorbance at 494 nm at 90°C", "assay_type": "biochemical", "conditions": "30 min incubation of rubredoxin at 90 °C, without solute 73%", "experimental": "Rubredoxin was obtained and purified as described by LeGall and Dragoni from Desulfovibrio gigas. This protein was then stored at -20°C in 10 mM Tris-HCl buffer at pH 7.6.\nThe most informative feature of the UV-Vis absorption spectrum of rubredoxins comes from the signals with maxima centered at 380, 494, and 570 nm which are attributed to metal to ligand transitions. These bands are bleached when rubredoxin undergoes de naturation.\nIn the experiments designed to evaluate denaturation caused by thermal stress, rubredoxin was prepared at a concentration of 84 µg . ml^-1 in 10 mM Tris-HCI buffer pH 7.6 and the incubation mixtures, with or without the additions of solutes, were placed in 400 µl quartz cells in a Beckman spectrophotometer with a thermostated cell compartment. The protein was subjected to a temperature of 90°C and the decrease in the absorbance at 494 nm was monitored as a function of time.\nThe protective effect of 1,1'-di-glycerol-phosphate (at a concentration of 100 mM) was compared with that of potassium phosphate (100 mM) and glycerol (200 mM) (Figure 4). After 30 min incubation of rubredoxin at 90 °C the absorbance decreased by only 8.5% when 1,1'-di-glycerol-phosphate was present, whereas in the absence of any solute a decrease of 73% was observed. […] In fact, the decreases in absorption are as high as 61 and 58 % in the presence of 200 mM glycerol or 100 mM potassium phosphate, respectively."}, "[2]": {"molecular_target": "T2, yeast alcohol dehydrogenase (ADH) (Saccharomyces cerevisiae, UniProt P00330)", "T2 construct": "Alcohol dehydrogenase (Sigma, baker's yeast) was obtained in the lyophilized form and used without further purification; purchased Sigma; host or cells: baker's yeast", "T2 sequence (P00330 2-348 limits assumed)": "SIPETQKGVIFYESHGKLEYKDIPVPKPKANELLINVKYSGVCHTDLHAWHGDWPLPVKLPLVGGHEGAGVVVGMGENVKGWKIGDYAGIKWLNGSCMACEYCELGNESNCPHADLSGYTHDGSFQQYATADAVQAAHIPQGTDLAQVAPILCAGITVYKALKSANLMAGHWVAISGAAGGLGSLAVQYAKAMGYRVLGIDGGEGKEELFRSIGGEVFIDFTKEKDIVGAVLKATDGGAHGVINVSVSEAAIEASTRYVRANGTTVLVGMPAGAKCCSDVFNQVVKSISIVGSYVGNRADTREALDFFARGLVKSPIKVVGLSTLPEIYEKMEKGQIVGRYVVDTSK", "assay": "Thermostability of alcohol dehydrogenase, residual activity after incubation at 50°C", "assay_type": "biochemical, baker's yeast", "conditions": "10 min incubation at 50°C, without solute 33%", "experimental": "(§1) Lactate dehydrogenase, LDH (Sigma Type III, rabbit muscle), purchased as a suspension in ammonium sulphate, was centrifuged, the supernatant was discarded, and the enzyme was suspended in 50 mM potassium phosphate pH 7.5. Alcohol dehydrogenase (Sigma, baker's yeast) was obtained in the lyophilized form and used without further purification. Enzymes were assayed using a Beckman spectrophotometer with a the rmostated cell compartment at 30°C.\n(§2) In the experiments where thermal stress was imposed, enzymes were prepared at a concentration of 50 mg . ml^-1 in 20 mM potassium phosphate buffer, and the reaction mixtures were placed in Eppendorf tubes, incubated in a water-bath at 50°C for 10 minutes, cooled in an ice-bath and assayed immediately under standard conditions.\n(§3) The effect of 1,1'-di-glycerol-phosphate on the thermostability of rabbit muscle LDH and baker's yeast ADH was compared to that of glycerol, a compound that is generally described as an enzyme protector. The percentage of residual activity in relation to pre-incubation activity, measured after 10 min of incubation at 50°C, is shown in Figure 5, for rabbit muscle LDH (A) and yeast ADH (B)."}, "[3]": {"molecular_target": "T3, rabbit muscle lactate dehydrogenase (LDH) (Oryctolagus cuniculus, UniProt P13491)", "T3 construct": "Lactate dehydrogenase, LDH (Sigma Type III, rabbit muscle), purchased as a suspension in ammonium sulphate; purchased Sigma Type III; host or cells: rabbit muscle", "assay": "Thermostability of lactate dehydrogenase, residual activity after incubation at 50°C", "assay_type": "biochemical", "conditions": "100 mM solute; 10 min of incubation at 50°C; without solute 30%", "experimental": "as §1, §2, §3\nThe effect of the concentration of 1,1'-di-glycerol-phosphate on the thermal stability of LDH was also monitored, and the results obtained after 10 min incubation at 50°C are shown in Figure 6. […]"}},
  "data": [
    {"smiles": "O=P(O)(OCC(O)CO)OCC(O)CO", "note": "(stereo not shown) [1,1'-di-glycerol-phosphate]", "values": [
      {"measurement": "decrease in absorbance at 494 nm", "setting": "[1]; 100 mM solute", "value": 8.5, "unit": "%"},
      {"measurement": "activity retained (of the initial activity)", "setting": "[2]; 100 mM solute", "value": 88, "unit": "%"},
      {"measurement": "residual activity in relation to pre-incubation activity", "setting": "[3]", "value": 85, "unit": "%"}
    ]},
    {"smiles": "O=P(O)(O)O", "note": "[potassium phosphate]", "values": [
      {"measurement": "decrease in absorbance at 494 nm", "setting": "[1]; 100 mM solute", "value": 58, "unit": "%"}
    ]},
    {"smiles": "OCC(O)CO", "note": "[glycerol]", "values": [
      {"measurement": "decrease in absorbance at 494 nm", "setting": "[1]; 200 mM solute", "value": 61, "unit": "%"},
      {"measurement": "activity retained (of the initial activity)", "setting": "[2]; 200 mM solute", "value": 31, "unit": "%"},
      {"measurement": "residual activity in relation to pre-incubation activity", "setting": "[3]", "value": 37, "unit": "%"}
    ]}
  ]
}
